# Experimental data taken from patent publication US20040049799A1, “Method for screening agents capable of treating obesity” (priority 2000, published 2004).
# System: messenger for the SPARC protein in the adipose tissue
# Assay: expression of the messenger for the SPARC protein in adipose tissue after insulin injection
# Format: in vivo
# Conditions: injected into mice
substance,measurement,value
insulin,expression of the messenger for the SPARC protein in the adipose tissue,increases the expression of the messenger for the SPARC protein
